Experimental findings from ChEMBL document CHEMBL1201862, “PubChem BioAssay data set” (2004) are described below.

Values joined by “and” are separate entries in the source; they are usually repeats but may differ in a detail not shown here. Equal values may be shown once. Active and inactive are the calls of the source. Where only a bound is given, the exact number is not on record here.

Test [1] in a line: inhibitors of cytokine-induced nitrite release, dose response, cell-based, Griess absorbance, INS-1E, dry powder, set 3 (AID 488870). It is filed as functional. The conditions noted are these: Rattus norvegicus.
Test [2] deals with INS1. Briefly: inhibitors of cytokine-induced nitrite release, dose response, cell-based, Griess absorbance, INS-1E, dry powder, set 2 (AID 488868). It is filed as functional. Conditions: Rattus norvegicus.
Test [3] addresses T1, DNA dC->dU-editing enzyme APOBEC-3G (Homo sapiens, UniProt Q9HC16). Briefly: APOBEC3G deaminase inhibitors, SAR follow-up, biochemical, fluorescence, single-stranded DNA substrate (AID 602136). The conditions noted are these: read-out: IC50_Mean. It is filed as functional.
Test [4] addresses DNA dC->dU-editing enzyme APOBEC-3A (Homo sapiens, UniProt P31941). Briefly: SAR analysis of small molecule inhibitors of APOBEC3A DNA Deaminase via a fluorescence-based single-stranded DNA deaminase assay. Format: functional. Conditions: read-out: IC50_Mean.
For test [5], the target named is T2, Apoptotic protease-activating factor 1 (Homo sapiens, UniProt O14727).
T2 sequence (O14727 whole entry): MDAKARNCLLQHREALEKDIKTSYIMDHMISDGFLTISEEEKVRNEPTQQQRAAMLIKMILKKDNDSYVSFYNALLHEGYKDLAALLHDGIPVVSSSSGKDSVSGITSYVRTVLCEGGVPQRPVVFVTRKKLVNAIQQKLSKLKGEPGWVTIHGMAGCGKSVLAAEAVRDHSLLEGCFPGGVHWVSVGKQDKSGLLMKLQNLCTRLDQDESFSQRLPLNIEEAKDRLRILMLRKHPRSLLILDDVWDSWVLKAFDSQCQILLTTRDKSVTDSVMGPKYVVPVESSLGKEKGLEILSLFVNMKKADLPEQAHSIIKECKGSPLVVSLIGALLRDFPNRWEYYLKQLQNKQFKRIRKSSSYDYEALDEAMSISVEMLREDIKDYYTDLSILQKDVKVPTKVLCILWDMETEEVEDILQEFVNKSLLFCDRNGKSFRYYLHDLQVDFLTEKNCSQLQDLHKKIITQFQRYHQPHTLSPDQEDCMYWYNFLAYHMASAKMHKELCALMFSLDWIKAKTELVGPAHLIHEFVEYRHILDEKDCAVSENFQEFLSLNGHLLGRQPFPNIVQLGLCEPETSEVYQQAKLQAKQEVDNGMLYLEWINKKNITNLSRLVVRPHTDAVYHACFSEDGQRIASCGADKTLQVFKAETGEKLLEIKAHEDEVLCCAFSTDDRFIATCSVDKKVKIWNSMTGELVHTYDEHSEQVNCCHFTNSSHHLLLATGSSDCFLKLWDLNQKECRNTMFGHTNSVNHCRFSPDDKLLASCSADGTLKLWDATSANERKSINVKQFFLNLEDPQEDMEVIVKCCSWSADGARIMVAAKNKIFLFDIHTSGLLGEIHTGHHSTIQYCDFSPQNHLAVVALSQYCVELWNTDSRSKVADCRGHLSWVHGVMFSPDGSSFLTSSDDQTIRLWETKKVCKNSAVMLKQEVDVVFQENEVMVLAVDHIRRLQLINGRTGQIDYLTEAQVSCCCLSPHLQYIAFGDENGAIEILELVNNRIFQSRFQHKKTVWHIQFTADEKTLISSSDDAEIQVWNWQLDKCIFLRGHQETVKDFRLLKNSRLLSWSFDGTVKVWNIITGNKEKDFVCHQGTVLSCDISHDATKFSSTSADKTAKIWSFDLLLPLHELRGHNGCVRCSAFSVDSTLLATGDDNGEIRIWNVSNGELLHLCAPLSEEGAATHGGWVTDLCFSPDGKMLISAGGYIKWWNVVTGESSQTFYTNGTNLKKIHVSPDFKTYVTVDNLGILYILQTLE
It is filed as functional.

Test [6] concerns the target T3, Sentrin-specific protease 8 (Homo sapiens, UniProt Q96LD8).
T3 sequence (Q96LD8 whole entry): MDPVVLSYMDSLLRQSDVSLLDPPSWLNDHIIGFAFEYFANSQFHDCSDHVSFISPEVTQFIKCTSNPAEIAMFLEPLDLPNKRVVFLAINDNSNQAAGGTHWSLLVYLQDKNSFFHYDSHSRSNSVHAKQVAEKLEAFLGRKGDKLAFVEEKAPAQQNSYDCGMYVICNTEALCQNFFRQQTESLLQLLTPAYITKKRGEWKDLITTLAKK
It is filed as functional.

Test [7] deals with T3, Sentrin-specific protease 8. It is filed as functional. This is another data set of the same source.
Test [8] addresses T4, Histone-lysine N-methyltransferase NSD2 (Homo sapiens, UniProt O96028).
T4 sequence (O96028 whole entry): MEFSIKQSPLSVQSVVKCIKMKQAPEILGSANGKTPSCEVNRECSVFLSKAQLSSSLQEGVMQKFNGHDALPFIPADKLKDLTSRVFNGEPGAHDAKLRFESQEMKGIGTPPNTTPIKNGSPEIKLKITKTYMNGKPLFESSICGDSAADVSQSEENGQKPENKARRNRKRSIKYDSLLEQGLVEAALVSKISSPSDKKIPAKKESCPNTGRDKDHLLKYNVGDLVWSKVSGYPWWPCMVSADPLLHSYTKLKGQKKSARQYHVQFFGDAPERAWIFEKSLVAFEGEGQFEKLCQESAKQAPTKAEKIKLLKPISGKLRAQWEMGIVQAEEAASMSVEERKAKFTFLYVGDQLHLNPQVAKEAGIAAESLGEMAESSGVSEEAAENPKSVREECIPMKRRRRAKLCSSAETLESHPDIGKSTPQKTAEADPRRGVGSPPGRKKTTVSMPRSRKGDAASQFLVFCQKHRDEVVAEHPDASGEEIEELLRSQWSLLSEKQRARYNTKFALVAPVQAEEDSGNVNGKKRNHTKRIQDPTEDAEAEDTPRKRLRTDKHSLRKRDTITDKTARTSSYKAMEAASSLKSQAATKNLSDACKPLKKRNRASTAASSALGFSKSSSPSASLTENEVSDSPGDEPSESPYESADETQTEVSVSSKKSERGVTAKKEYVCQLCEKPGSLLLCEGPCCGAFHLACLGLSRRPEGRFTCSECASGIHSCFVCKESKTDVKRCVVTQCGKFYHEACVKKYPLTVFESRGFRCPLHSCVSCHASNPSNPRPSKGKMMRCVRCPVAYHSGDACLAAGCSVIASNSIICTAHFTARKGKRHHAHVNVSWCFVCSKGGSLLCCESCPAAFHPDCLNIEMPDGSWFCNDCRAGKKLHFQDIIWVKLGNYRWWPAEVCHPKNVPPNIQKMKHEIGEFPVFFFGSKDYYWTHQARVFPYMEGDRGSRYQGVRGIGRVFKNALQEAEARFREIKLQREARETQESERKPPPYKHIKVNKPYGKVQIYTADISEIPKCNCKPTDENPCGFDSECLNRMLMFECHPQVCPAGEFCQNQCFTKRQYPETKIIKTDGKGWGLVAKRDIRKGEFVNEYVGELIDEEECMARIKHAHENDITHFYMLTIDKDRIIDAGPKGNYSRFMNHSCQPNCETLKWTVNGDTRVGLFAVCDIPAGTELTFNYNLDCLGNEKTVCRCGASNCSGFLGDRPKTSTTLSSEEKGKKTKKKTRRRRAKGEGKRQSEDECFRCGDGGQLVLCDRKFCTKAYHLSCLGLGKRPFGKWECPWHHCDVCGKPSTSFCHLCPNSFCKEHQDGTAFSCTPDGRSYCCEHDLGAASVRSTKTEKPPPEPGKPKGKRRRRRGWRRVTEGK
Format: biochemical.

The target of test [9] is Tyrosyl-DNA phosphodiesterase 2 (Homo sapiens, UniProt O95551). Put plainly: human TDP2 enzyme inhibitors, dose response, biochemical, epi absorbance, IC50 (AID 743297).
Test [10] can be described thus: cells. Format: functional.
The target of test [11] is T5, V-type proton ATPase subunit c' (Saccharomyces cerevisiae S288c, UniProt P32842). Briefly: Dose Response of Small Molecules that Regulate V-ATPase Proton Transport in Yeast using pHLuorin, Cherry Pick 2. The conditions noted are these: read-out: EC50_MICROM. Format: functional.
The target in test [12] is T5, V-type proton ATPase subunit c'. Briefly: Dose Response with BCECF Assay for V-ATPase inhibitors that increase vacuolar pH, Powder Set 1. Format: functional. Conditions: read-out: EC50_MICROM.
Test [13] concerns the target Multidrug resistance protein CDR2 (Candida albicans (strain SC5314 / ATCC MYA-2876) (Yeast), UniProt P78595). Briefly: CaCDR2 efflux pump inhibitors in yeast, dose response, S. cerevisiae AD1-8u, singleplex, Cherry Pick1 hits (AID 588604). It is filed as functional.
The target of test [14] is T1, DNA dC->dU-editing enzyme APOBEC-3G. Put plainly: Dose Response confirmation of small molecule APOBEC3G DNA Deaminase Inhibitors via a fluorescence-based single-stranded DNA deaminase assay. [Related pubchem assays (depositor defined):AID493012, AID493028]. Format: functional.
Test [15] can be described thus: SAR analysis of small molecule activators of Apaf-1 using a LZ-Caspase-9/Caspase-3 Fluorescent Selectivity assay - Set 2. Conditions: read-out: EC50_Mean. Format: functional.
In test [16] the target is T2, Apoptotic protease-activating factor 1. Briefly: SAR analysis of small molecule Activators of Apaf-1 in a Fluorescent assay. It is filed as functional. The conditions noted are these: read-out: EC50_Mean.
Test [17] shares this target. Briefly: SAR analysis of small molecule Activators of Apaf-1 in a Fluorescent assay - set 2. It is filed as functional. The conditions noted are these: read-out: EC50_Mean.
In test [18] the target is Protein disulfide-isomerase (Homo sapiens, UniProt P07237). Briefly: PDI inhibitors, insulin aggregation turbidity, dose response, biochemical, absorbance, cherry-picked samples (AID 602350). It is filed as functional.
Test [19] deals with Melanocortin receptor 4 (Homo sapiens, UniProt P32245). Briefly: MC4R antagonist potency on cAMP, dose response, cell-based, TR-FRET, biased antagonists (AID 602298).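 Further: antagonist potency against agonist-stimulated cAMP production.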 It is filed as functional.
Test [20] in a line: nonselective inhibitors of cellular cAMP signaling, dose response, counter-screen for MC4R biased antagonist project, cell-based, TR-FRET cAMP detection (AID 602305).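 Further: U2OS cells stimulated with forskolin near its EC80 as the cAMP inducer; potency is for inhibition of forskolin-stimulated cAMP signaling.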 It is filed as functional.
Test [21] has as its target T6, Neuropeptides B/W receptor type 1 (Homo sapiens, UniProt P48145).
T6 sequence (P48145 whole entry): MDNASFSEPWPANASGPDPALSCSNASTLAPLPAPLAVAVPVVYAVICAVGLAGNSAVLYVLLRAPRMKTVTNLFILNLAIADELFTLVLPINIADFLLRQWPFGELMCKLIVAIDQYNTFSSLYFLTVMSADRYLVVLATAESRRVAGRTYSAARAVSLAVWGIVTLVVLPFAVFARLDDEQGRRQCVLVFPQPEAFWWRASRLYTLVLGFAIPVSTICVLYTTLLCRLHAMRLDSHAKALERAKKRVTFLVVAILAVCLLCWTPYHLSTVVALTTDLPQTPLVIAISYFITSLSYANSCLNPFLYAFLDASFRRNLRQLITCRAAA
Put plainly: GPR7 antagonist potency, late-stage follow-up, cell-based, fluorescence, dose response, set 5 (AID 588566). Format: functional.

For test [22], the target named is Melanin-concentrating hormone receptor 1 (Homo sapiens, UniProt Q99705). Briefly: Late-stage fluorescence-based counterscreen for antagonists of the G-protein coupled receptor 7 (GPR7): cell-based dose response assay to identify antagonists of the melanin-concentrating hormone receptor 1 (MCHR1) Set 5. It is filed as functional.
Sequence of Melanin-concentrating hormone receptor 1 (Q99705 whole entry): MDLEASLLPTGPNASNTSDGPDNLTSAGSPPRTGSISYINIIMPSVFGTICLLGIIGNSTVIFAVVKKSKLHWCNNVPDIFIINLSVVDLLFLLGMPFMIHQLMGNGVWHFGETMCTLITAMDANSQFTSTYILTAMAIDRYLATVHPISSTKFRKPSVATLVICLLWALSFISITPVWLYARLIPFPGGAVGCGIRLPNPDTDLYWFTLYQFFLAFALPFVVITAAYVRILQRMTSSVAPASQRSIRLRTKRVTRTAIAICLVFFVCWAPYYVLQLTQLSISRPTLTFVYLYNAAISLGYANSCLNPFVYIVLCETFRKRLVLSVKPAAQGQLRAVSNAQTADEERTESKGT

T5 sequence (P32842 whole entry): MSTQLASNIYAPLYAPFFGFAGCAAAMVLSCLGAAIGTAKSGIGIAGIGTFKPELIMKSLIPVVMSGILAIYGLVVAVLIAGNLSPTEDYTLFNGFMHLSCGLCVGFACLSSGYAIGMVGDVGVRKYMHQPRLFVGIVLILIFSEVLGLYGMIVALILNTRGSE
T1 sequence (Q9HC16 whole entry): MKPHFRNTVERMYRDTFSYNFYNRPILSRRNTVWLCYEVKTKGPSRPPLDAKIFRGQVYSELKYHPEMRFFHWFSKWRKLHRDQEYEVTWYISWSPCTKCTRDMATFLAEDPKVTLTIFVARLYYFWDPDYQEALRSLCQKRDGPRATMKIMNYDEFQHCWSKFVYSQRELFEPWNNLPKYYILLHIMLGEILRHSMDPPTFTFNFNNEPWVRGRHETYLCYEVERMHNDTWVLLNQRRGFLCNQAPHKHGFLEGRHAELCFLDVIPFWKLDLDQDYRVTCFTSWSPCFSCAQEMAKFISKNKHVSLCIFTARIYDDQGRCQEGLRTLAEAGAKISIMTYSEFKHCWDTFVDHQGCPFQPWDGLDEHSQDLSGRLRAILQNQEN
Sequence of Multidrug resistance protein CDR2 (P78595 whole entry): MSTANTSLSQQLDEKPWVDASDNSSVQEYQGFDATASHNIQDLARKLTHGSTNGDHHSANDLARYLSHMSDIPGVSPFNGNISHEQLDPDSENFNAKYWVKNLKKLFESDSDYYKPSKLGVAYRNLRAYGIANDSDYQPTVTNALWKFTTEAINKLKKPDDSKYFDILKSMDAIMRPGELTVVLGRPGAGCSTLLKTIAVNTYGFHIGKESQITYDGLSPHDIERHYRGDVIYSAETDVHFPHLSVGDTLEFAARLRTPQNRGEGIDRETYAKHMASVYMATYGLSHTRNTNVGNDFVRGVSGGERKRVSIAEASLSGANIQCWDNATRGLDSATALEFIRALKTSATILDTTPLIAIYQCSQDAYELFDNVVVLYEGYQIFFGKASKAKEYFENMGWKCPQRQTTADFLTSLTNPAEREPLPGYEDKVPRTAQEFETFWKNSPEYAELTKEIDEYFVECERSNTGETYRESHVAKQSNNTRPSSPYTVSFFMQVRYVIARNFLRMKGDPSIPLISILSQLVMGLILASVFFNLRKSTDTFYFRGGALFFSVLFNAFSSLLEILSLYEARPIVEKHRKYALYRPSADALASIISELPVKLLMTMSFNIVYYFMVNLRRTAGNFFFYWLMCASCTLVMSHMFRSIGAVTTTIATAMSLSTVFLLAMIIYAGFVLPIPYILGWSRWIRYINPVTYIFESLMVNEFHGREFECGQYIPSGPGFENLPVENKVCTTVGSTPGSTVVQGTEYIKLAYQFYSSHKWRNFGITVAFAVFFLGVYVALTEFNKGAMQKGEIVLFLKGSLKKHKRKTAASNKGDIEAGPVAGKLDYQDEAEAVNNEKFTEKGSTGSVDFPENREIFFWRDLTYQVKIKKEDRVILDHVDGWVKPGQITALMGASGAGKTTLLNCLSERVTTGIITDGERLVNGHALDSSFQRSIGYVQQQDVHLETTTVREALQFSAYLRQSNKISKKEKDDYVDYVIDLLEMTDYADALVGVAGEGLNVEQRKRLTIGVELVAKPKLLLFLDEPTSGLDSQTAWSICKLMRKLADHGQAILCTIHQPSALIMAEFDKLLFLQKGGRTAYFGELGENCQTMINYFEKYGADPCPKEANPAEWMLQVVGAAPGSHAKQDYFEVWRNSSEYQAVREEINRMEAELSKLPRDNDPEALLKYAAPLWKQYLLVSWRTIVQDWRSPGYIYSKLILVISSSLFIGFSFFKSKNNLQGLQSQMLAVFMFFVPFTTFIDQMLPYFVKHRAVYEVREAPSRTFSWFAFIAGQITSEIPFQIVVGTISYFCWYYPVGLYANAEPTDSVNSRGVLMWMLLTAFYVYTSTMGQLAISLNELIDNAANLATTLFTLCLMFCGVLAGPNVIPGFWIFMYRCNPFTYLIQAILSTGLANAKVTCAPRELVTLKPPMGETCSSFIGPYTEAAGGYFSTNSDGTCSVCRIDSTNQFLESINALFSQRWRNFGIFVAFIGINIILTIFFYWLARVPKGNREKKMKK
Sequence of Protein disulfide-isomerase (P07237 whole entry): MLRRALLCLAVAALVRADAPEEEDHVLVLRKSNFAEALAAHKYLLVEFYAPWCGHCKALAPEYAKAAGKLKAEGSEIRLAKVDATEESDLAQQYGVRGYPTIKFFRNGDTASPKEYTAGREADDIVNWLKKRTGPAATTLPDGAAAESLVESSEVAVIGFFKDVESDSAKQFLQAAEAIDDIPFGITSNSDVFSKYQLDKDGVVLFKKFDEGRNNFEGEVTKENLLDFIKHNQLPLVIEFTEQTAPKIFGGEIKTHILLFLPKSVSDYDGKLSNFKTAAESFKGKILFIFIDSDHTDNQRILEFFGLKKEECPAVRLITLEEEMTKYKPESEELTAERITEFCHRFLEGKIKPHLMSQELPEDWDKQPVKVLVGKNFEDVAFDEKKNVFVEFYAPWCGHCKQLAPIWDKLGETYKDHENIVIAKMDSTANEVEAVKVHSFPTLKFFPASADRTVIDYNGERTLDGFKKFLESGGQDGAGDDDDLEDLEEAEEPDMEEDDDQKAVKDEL
Sequence of Melanocortin receptor 4 (P32245 whole entry): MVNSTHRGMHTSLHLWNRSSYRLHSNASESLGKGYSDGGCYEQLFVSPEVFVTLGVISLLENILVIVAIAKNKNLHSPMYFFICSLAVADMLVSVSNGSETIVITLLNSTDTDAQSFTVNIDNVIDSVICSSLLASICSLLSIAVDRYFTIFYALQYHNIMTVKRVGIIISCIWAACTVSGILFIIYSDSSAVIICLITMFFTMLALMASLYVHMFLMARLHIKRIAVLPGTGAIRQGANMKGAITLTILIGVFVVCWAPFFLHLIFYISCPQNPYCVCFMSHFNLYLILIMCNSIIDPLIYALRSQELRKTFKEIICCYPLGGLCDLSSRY
Sequence of DNA dC->dU-editing enzyme APOBEC-3A (P31941 whole entry): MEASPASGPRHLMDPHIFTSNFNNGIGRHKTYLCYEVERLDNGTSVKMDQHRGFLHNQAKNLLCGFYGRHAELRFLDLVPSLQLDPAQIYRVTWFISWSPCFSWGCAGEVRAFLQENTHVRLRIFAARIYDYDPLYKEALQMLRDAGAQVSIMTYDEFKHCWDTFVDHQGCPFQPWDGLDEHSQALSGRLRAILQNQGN
Sequence of Tyrosyl-DNA phosphodiesterase 2 (O95551 whole entry): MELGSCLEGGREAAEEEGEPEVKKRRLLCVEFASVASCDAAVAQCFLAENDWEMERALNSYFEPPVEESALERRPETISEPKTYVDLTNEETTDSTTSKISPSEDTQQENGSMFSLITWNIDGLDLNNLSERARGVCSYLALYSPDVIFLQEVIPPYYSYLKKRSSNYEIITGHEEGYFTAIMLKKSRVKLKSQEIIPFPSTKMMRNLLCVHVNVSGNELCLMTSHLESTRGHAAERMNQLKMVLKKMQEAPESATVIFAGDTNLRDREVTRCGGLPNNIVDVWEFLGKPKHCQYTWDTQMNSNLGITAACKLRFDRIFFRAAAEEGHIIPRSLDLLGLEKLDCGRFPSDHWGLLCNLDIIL

`COc1ccc(S(=O)(=O)N(C)C[C@@H]2Oc3c(NC(=O)NC4CCCCC4)cccc3C(=O)N([C@@H](C)CO)C[C@H]2C)cc1`: the figures for the AC50 in test [1] and in test [2] were 64.5 µM (active) and 44.5 µM (active), respectively.
For `Cc1cc(C(=O)CSc2nnc3scc(-c4ccccc4)n23)c(C)n1-c1cc(F)ccc1F`, the IC50 in test [3] and in test [4] was > 99 µM (inactive) in each case.
As to `C[n+]1cccc2c(Br)ccc([O-])c21`, the IC50 was 92 µM (active) in test [5], 4.18 µM (active) in test [6], 1.64 µM (active) in test [7] and > 42.8 µM (inactive) in test [9]. In test [8], the AC50 is 7.45 µM (active).
As to `O=C(c1ccc([N+](=O)[O-])o1)N1CCN(c2nc3ccc(F)cc3s2)CC1`, the IC50 in test [10] was < 100 nM (active). Moreover, the values for the EC50 in [11] and in test [12] were 3.64 µM (active) and 384 nM (active), respectively.
Turning to `COc1ccc2nccc(/C=C/c3ccnc4ccc(OC)cc34)c2c1`, the EC50 in [13] is 14 µM (active).
Turning to `O=C(O)C1CC(c2ccc(F)cc2)=NO1` (configuration not stated), the IC50 in test [14] is 10.9 µM (active). In addition, the EC50 in test [15] is > 100 µM (inactive) and > 99 µM (inactive); in test [16] it was 6.69 µM (active); in [17], 6.39 µM (active) and 3.86 µM (active) and > 99 µM (inactive).
Regarding `C[C@H](CO)N1C[C@H](C)[C@@H](CN(C)S(=O)(=O)c2ccc(F)cc2)Oc2ccc(NC(=O)Cc3cn(C)c4ccccc34)cc2C1=O`, in test [18], the concentration at half-maximal activity (AC50) was 19.5 µM (active).
As to `Cn1ccs/c1=N\C(=O)c1ccc(S(C)(=O)=O)c([N+](=O)[O-])c1`, the IC50 in test [19] and in test [20] was > 64.6 µM (inactive) each time.
For `CCOc1ccc(Sc2cnn(Cc3cccc4ccccc34)c(=O)c2Cl)cc1`, the IC50 in test [21] is 5 µM (active); in [22], > 20 µM (inactive).
